# Laboratory results published in ChEMBL document CHEMBL1201862, “PubChem BioAssay data set” (2004).
#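 Following 48 hours of exposure in 96-well plates, responses at five concentrations were used to interpolate endpoints linearly. GI50 marks 50% less growth.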 Calls of active or inactive are those of the source. No stated cut-off is given here; in the data, active = GI50 up to about 1.1 µM and inactive = higher.
# Legend:
# Assay in all cases: NCI anticancer screen, dose series, 48 h
# [1] = test system: CCRF-CEM
# [2] = test system: KM12
# [3] = test system: OVCAR-4
# [4] = test system: HL-60
# [5] = test system: UACC-62
# [6] = test system: MDA-MB-435
# [7] = test system: OVCAR-8
# [8] = test system: LOX IMVI
# [9] = test system: IGROV-1
# [10] = test system: OVCAR-3
# [11] = test system: Hs-578T
# [12] = test system: NCI-H23
# [13] = test system: SF-268
# [14] = test system: A549
# [15] = test system: HOP-62
# [16] = test system: A498
# [17] = test system: SK-MEL-28
# [18] = test system: SN12C
# [19] = test system: COLO 205
# [20] = test system: T47D
SMILES,GI50 [1],GI50 [2],GI50 [3],GI50 [4],GI50 [5],GI50 [6],GI50 [7],GI50 [8],GI50 [9],GI50 [10],GI50 [11],GI50 [12],GI50 [13],GI50 [14],GI50 [15],GI50 [16],GI50 [17],GI50 [18],GI50 [19],GI50 [20]
COc1cc(C2C(Cl)C(=O)N2NC(=O)c2ccccc2O)cc(OC)c1OC (configuration not stated),1.65 µM (inactive),5.58 µM (inactive),3.99 µM (inactive),0.733 µM (active),2.89 µM (inactive),6.03 µM (inactive),2.47 µM (inactive),3.7 µM (inactive),0.188 µM (active),4.72 µM (inactive),8.38 µM (inactive),2.4 µM (inactive),5.73 µM (inactive),4.27 µM (inactive),–,–,–,–,–,–
O=C(COc1ccccc1)NS(=O)(=O)c1ccccc1,> 100 µM (inactive),> 100 µM (inactive),> 100 µM (inactive),> 100 µM (inactive),> 100 µM (inactive),–,> 100 µM (inactive),> 100 µM (inactive),> 100 µM (inactive),> 100 µM (inactive),–,> 100 µM (inactive),> 100 µM (inactive),> 100 µM (inactive),> 100 µM (inactive),> 100 µM (inactive),> 100 µM (inactive),> 100 µM (inactive),> 100 µM (inactive),–
Cc1cc(C(=O)CSC(=S)SC(C)(C)C)ccc1Cl,–,20 µM (inactive),31 µM (inactive),18.4 µM (inactive),16.1 µM (inactive),23.7 µM (inactive),32.1 µM (inactive),19.9 µM (inactive),33.1 µM (inactive),16.4 µM (inactive),25.5 µM (inactive),29.5 µM (inactive),18.2 µM (inactive),20.9 µM (inactive),17.4 µM (inactive),16.3 µM (inactive),19.8 µM (inactive),18.2 µM (inactive),18.4 µM (inactive),–
CC(=O)NC1=C(C)C(=O)c2c(nc3n2CCC3OC(=O)CCl)C1=O (configuration not stated),1.45 µM (inactive),15.6 µM (inactive),1.52 µM (inactive),2.51 µM (inactive),2.81 µM (inactive),–,4.1 µM (inactive),4.15 µM (inactive),11.8 µM (inactive),1.41 µM (inactive),–,11.7 µM (inactive),10.3 µM (inactive),12.9 µM (inactive),17.1 µM (inactive),12.6 µM (inactive),17.2 µM (inactive),11.7 µM (inactive),17.5 µM (inactive),–
CC1(C)O[C@@H](CP(c2ccc3ccccc3c2)c2ccc3ccccc3c2)[C@H](CP(c2ccc3ccccc3c2)c2ccc3ccccc3c2)O1,> 100 µM (inactive),70.1 µM (inactive),> 100 µM (inactive),–,> 100 µM (inactive),> 100 µM (inactive),> 100 µM (inactive),> 100 µM (inactive),33 µM (inactive),58.9 µM (inactive),–,> 100 µM (inactive),> 100 µM (inactive),> 100 µM (inactive),> 100 µM (inactive),–,> 100 µM (inactive),> 100 µM (inactive),> 100 µM (inactive),78.2 µM (inactive)
c1csc(-c2ccc(-c3ccc(-c4ccc(-c5cccs5)s4)s3)s2)c1,26.5 µM (inactive),–,–,14.8 µM (inactive),> 100 µM (inactive),> 100 µM (inactive),> 100 µM (inactive),–,> 100 µM (inactive),> 100 µM (inactive),> 100 µM (inactive),> 100 µM (inactive),> 100 µM (inactive),–,34 µM (inactive),> 100 µM (inactive),–,> 100 µM (inactive),> 100 µM (inactive),–
Nc1c(S(=O)(=O)c2ccccc2)c2nc3ccccc3nc2n2c1nc1ccccc12,> 39.2 µM (inactive),> 64 µM (inactive),19.8 µM (inactive),> 100 µM (inactive),> 62.8 µM (inactive),–,20.1 µM (inactive),> 60.8 µM (inactive),> 57.3 µM (inactive),> 25.4 µM (inactive),–,19.4 µM (inactive),> 45.3 µM (inactive),> 51.5 µM (inactive),19.4 µM (inactive),> 100 µM (inactive),10.4 µM (inactive),> 48.1 µM (inactive),> 100 µM (inactive),–
CCCCCCC1=NOC(C(c2cc[nH]c2)N(C)[C@H](C(=O)OC)C(C)C)C1 (some centres not stated),16.7 µM (inactive),21.9 µM (inactive),39 µM (inactive),27.3 µM (inactive),37.1 µM (inactive),–,42.2 µM (inactive),26.1 µM (inactive),65.8 µM (inactive),25.4 µM (inactive),–,47.8 µM (inactive),> 100 µM (inactive),62.5 µM (inactive),> 100 µM (inactive),> 100 µM (inactive),75 µM (inactive),20.6 µM (inactive),15.3 µM (inactive),–
COc1cc(C2c3cc4c(cc3C(=O)C3CCC(=O)N32)OCO4)cc(OC)c1O (configuration not stated),> 50 µM (inactive),> 50 µM (inactive),> 50 µM (inactive),> 50 µM (inactive),> 50 µM (inactive),> 50 µM (inactive),> 50 µM (inactive),–,> 50 µM (inactive),> 50 µM (inactive),–,> 50 µM (inactive),–,> 50 µM (inactive),> 50 µM (inactive),> 50 µM (inactive),> 50 µM (inactive),> 50 µM (inactive),> 50 µM (inactive),> 50 µM (inactive)
CCOC(=O)C1(C(=O)OCC)C[C@@H](C)[C@@H](O)C1,> 100 µM (inactive),> 100 µM (inactive),> 100 µM (inactive),89.9 µM (inactive),> 100 µM (inactive),> 100 µM (inactive),> 100 µM (inactive),> 100 µM (inactive),> 100 µM (inactive),> 100 µM (inactive),> 100 µM (inactive),> 100 µM (inactive),> 100 µM (inactive),> 100 µM (inactive),> 100 µM (inactive),> 100 µM (inactive),> 100 µM (inactive),> 100 µM (inactive),> 100 µM (inactive),–
O=C1CSc2nnc(CCCCCCCCc3nnc4n3NC(=O)CS4)n2N1,15.3 µM (inactive),> 100 µM (inactive),> 100 µM (inactive),31.5 µM (inactive),> 100 µM (inactive),> 100 µM (inactive),27.4 µM (inactive),–,42.6 µM (inactive),> 100 µM (inactive),–,> 100 µM (inactive),43.3 µM (inactive),> 100 µM (inactive),46 µM (inactive),> 100 µM (inactive),> 100 µM (inactive),> 100 µM (inactive),> 100 µM (inactive),> 100 µM (inactive)
CC(O)CCCCC(O)CCC[C@H](O)[C@H]1CCC([C@H]2CCC([C@@H](O)CCCCCCCCCCCCC3=C[C@H](C)OC3=O)O2)O1 (some centres not stated),9.38 µM (inactive),5.48 µM (inactive),12.6 µM (inactive),9.79 µM (inactive),10.9 µM (inactive),9.18 µM (inactive),10.1 µM (inactive),–,10.5 µM (inactive),9.51 µM (inactive),12.3 µM (inactive),8.65 µM (inactive),11.6 µM (inactive),7.94 µM (inactive),10.6 µM (inactive),–,13.5 µM (inactive),12.2 µM (inactive),11.1 µM (inactive),–
COC(=O)C1CCC2(C)[C@H](CCC3O[C@]32C)[C@@]1(C)CC(=O)c1ccoc1 (some centres not stated),31.1 µM (inactive),42.2 µM (inactive),> 100 µM (inactive),75 µM (inactive),88.5 µM (inactive),–,> 100 µM (inactive),> 100 µM (inactive),58.6 µM (inactive),> 100 µM (inactive),–,71 µM (inactive),48.4 µM (inactive),> 100 µM (inactive),> 100 µM (inactive),43 µM (inactive),> 100 µM (inactive),> 100 µM (inactive),> 100 µM (inactive),–
COC(=O)C1CC(=O)O[C@H]1c1ccc(OC)c(OC)c1 (some centres not stated),> 100 µM (inactive),> 100 µM (inactive),> 100 µM (inactive),> 100 µM (inactive),> 100 µM (inactive),–,> 100 µM (inactive),> 100 µM (inactive),> 100 µM (inactive),> 100 µM (inactive),–,> 100 µM (inactive),> 100 µM (inactive),> 100 µM (inactive),> 100 µM (inactive),> 100 µM (inactive),> 100 µM (inactive),> 100 µM (inactive),> 100 µM (inactive),–
CC([C@H]1CCC2C3CCC4CC5(CC[C@]4(C)C3CC[C@@]21C)c1ccccc1C(=O)N5C)N(C)C (some centres not stated),44.4 µM (inactive),74.8 µM (inactive),68.1 µM (inactive),17.5 µM (inactive),24.5 µM (inactive),–,39.8 µM (inactive),1.65 µM (inactive),40.6 µM (inactive),> 100 µM (inactive),–,> 100 µM (inactive),> 100 µM (inactive),78.5 µM (inactive),31.3 µM (inactive),23.8 µM (inactive),17.6 µM (inactive),31.6 µM (inactive),33 µM (inactive),–
Oc1cc(-c2cccc(Cl)c2)nc2ncccc12,0.0689 µM (active),0.0515 µM (active),> 66.7 µM (inactive),0.0142 µM (active),0.0577 µM (active),< 0.01 µM (active),0.377 µM (active),0.133 µM (active),0.0813 µM (active),0.0466 µM (active),0.084 µM (active),1.54 µM (inactive),5.53 µM (inactive),0.126 µM (active),0.253 µM (active),0.53 µM (active),0.183 µM (active),0.141 µM (active),0.0782 µM (active),–
